Measured values published in article PMC4418176 (Bioorganic & medicinal chemistry letters, 2009).

Key:
NTR1 = NTR1 (Homo sapiens, UniProt P30989); assay: NTR1 agonist-mediated calcium mobilization assay; assay type: cell-based; conditions: for NTR1 specificity of the observed calcium release (block by NTR1 antagonist 1a): cells pre-incubated with 1 or 10 mM 1a for 15 min at 37 °C, test compound at its EC50, data not shown
NTR1 receptor = conditions: calcium release (FLIPR) assay; cited from earlier work

Sequence of NTR1 (P30989 whole entry, species assumed): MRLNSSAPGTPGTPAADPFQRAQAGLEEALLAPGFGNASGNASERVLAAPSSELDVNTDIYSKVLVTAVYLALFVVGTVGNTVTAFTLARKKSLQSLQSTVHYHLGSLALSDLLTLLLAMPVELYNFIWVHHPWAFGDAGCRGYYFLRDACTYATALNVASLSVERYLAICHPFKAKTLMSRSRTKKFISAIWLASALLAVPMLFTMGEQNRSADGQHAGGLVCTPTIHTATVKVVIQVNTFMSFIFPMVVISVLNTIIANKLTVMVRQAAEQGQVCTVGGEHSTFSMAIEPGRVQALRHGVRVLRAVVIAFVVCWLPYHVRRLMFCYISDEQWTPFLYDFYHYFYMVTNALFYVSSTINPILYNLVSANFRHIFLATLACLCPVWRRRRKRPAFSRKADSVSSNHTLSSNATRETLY

SMILES | NTR1 specificity of the observed calcium release (block by NTR1 antagonist 1a) (NTR1) | NTR1 receptor partial agonist activity (NTR1 receptor) | also measured
COc1cccc(OC)c1-c1cc(C(=O)N[C@H](C(=O)O)C2CCCCC2)nn1-c1ccnc2cc(Cl)ccc12 [Compound 1b, reference compound] |  |  | Screen (10 μM), percent stimulation relative to NT (NTR1; 10 μM, in triplicate, CHO-K1 cells stably expressing NTR1, NA = not active): did not stimulate calcium release
COc1cccc(OC)c1-c1cc(C(=O)N[C@@H](CC(C)C)C(=O)O)nn1-c1ccnc2cc(Cl)ccc12 [Compound 3a] | demonstrated by blocking with the NTR1 antagonist (1a) |  | Emax (NTR1; ± SEM, relative to neurotensin): 51 %NT
COc1cccc(OC)c1-c1cc(C(=O)N[C@H](CC(C)C)C(=O)O)nn1-c1ccnc2cc(Cl)ccc12 [Compound 3b] | demonstrated by blocking with the NTR1 antagonist (1a) |  | 
COc1cccc(OC)c1-c1cc(C(=O)N[C@@H](CC(C)C)C(=O)O)nn1-c1cccc2ccccc12 [Compound 5] |  |  | agonist activity when screened (NTR1): no agonist activity
CC(C)CC(NC(=O)OCC1c2ccccc2-c2ccccc21)C(=O)O (stereo not shown) [Compound 6] |  | partial agonist activity | 
CC(C)C[C@H](NC(=O)Cn1ccc2cc(NS(=O)(=O)c3cccc4cccnc34)ccc21)C(=O)O [Compound 7] |  | partial agonist activity | 
